Experimental data as given in PubChem BioAssay (NCI).
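The concentration for 50% growth inhibition is given as GI50. At the TGI there is no net growth.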 Numbered stars: 1 amine (or outer) side, 2 acyl side, 3 side chain; on linkers, the order of the positions; unused ones are H or OH. Bridge positions count the residues as written; N and C are the ends. Square brackets hold non-standard residues; d marks the D form. Peptide text beside a SMILES is read from it. I, II: the chains in the order shown. Actinocin(9to1) = Cc1c2oc3c(C)ccc(C(=O)[*:1])c3nc-2c(C(=O)[*:2])c(N)c1=O; aThr = C[C@H](O)[C@H](N)C(=O)O; NMeV = CN[C@H](C(=O)O)C(C)C; Sar = CNCC(=O)O

Tests used:
Assay in all cases: NCI anticancer screen, dose series, 384-well format
[1] = test system: PC-3 prostate
[2] = test system: OVCAR-4 ovarian
[3] = test system: IGROV1 ovarian
[4] = test system: ACHN renal
[5] = test system: A549 NSCLC
[6] = test system: EKVX NSCLC
[7] = test system: HCT-15 colon
[8] = test system: 786-0 renal
[9] = test system: UO-31 renal
[10] = test system: A498 renal
[11] = test system: M14 melanoma
[12] = test system: SW-620 colon
[13] = test system: NCI/ADR-RES ovarian
[14] = test system: BT-549 breast
[15] = test system: MDA-MB-231 breast
[16] = test system: TK-10 renal
[17] = test system: HOP-62 NSCLC
[18] = test system: SK-MEL-5 melanoma
[19] = test system: RPMI-8226 leukemia
[20] = test system: SK-OV-3 ovarian
[21] = test system: SR leukemia
[22] = test system: COLO 205 colon
[23] = test system: SK-MEL-28 melanoma
[24] = test system: HCC-2998 colon
[25] = test system: MOLT-4 leukemia
[26] = test system: HL-60(TB) leukemia
[27] = test system: UACC-257 melanoma
[28] = test system: LOX IMVI melanoma
[29] = test system: NCI-H226 lung
[30] = test system: T-47D breast
[31] = test system: HOP-92 NSCLC
[32] = test system: U251 glioblastoma
[33] = test system: SF-539 CNS
[34] = test system: OVCAR-8 ovarian
[35] = test system: MDA-MB-435 melanoma
[36] = test system: DU-145 prostate
[37] = test system: KM12 colon
[38] = test system: HS 578T breast
[39] = test system: NCI-H23 lung
[40] = test system: MDA-MB-468 breast
[41] = test system: SN12C renal
[42] = test system: SNB-19 CNS
[43] = test system: CAKI-1 renal
[44] = test system: SF-295 CNS
[45] = test system: RXF 393 renal
[46] = test system: OVCAR-3 ovarian
[47] = test system: NCI-H460 NSCLC
[48] = test system: HT29 colon
[49] = test system: UACC-62 melanoma
[50] = test system: SF-268 CNS
[51] = test system: NCI-H522 lung
[52] = test system: NCI-H322M lung
[53] = test system: SNB-75 CNS
[54] = test system: HCT-116 colon
[55] = test system: MALME-3M melanoma
[56] = test system: OVCAR-5 ovarian
[57] = test system: MCF7 breast

Cc1c2oc3c(C)ccc(C(=O)N[C@@H]4C(=O)N[C@H](C(C)C)C(=O)N5CCC[C@H]5C(=O)N(C)CC(=O)N(C)[C@@H](C(C)C)C(=O)O[C@H]4C)c3nc-2c(C(=O)N[C@@H]2C(=O)N[C@H](C(C)C)C(=O)N3CCC[C@H]3C(=O)N(C)CC(=O)N(C)[C@@H](C(C)C)C(=O)O[C@H]2C)c(N)c1=O (I: [aThr][dV]P[Sar][NMeV] / II: [aThr][dV]P[Sar][NMeV]; ester I:1-I:C, II:1-II:C; linker I:N-II:N via Actinocin(9to1))
TGI [1]: 0.0571 µM | TGI [2]: < 0.0266 µM | TGI [3]: 0.0138 µM | TGI [4]: 0.0165 µM | TGI [5]: 1.37 µM | TGI [6]: 0.0435 µM | TGI [7]: 0.069 µM | TGI [8]: 0.0188 µM | GI50 [9]: < 0.0119 µM | TGI [9]: 0.0268 µM | TGI [10]: < 0.0165 µM | TGI [11]: < 0.0112 µM | TGI [12]: < 0.0351 µM | GI50 [13]: 0.571 µM | TGI [13]: 2.83 µM

NC1(C(=O)N[C@@H](CCO)c2ccc(Cl)cc2)CCN(c2ncnc3[nH]ccc23)CC1
GI50 [14]: 0.863 µM | TGI [14]: 18.9 µM | GI50 [15]: 84.9 µM | TGI [15]: > 100 µM | GI50 [16]: 3.3 µM | TGI [16]: > 100 µM | GI50 [17]: 21.1 µM | TGI [17]: > 100 µM | GI50 [18]: 10 µM | TGI [18]: 29.6 µM | GI50 [19]: 21.5 µM | TGI [19]: 84 µM | GI50 [20]: 1.02 µM | TGI [20]: > 100 µM | GI50 [21]: 1.07 µM | TGI [21]: 4.49 µM | GI50 [1]: 0.629 µM | TGI [1]: > 100 µM | GI50 [22]: 5.9 µM | TGI [22]: 73.6 µM | GI50 [23]: 4.49 µM | TGI [23]: > 100 µM | GI50 [2]: 88.3 µM | TGI [2]: > 100 µM | GI50 [24]: 2.61 µM | TGI [24]: > 100 µM | GI50 [25]: 0.453 µM | TGI [25]: 1.88 µM | GI50 [26]: 12.7 µM | TGI [26]: 25.9 µM | GI50 [3]: 0.121 µM | TGI [3]: 2.09 µM | GI50 [27]: 4.55 µM | TGI [27]: 25.7 µM | GI50 [28]: 22.4 µM | TGI [28]: > 100 µM | GI50 [4]: 13.1 µM | TGI [4]: > 100 µM | GI50 [29]: 13 µM | TGI [29]: 78.6 µM | GI50 [5]: 19.7 µM | TGI [5]: > 100 µM | GI50 [30]: 0.423 µM | TGI [30]: > 100 µM | GI50 [31]: > 100 µM | TGI [31]: > 100 µM | GI50 [32]: 5.38 µM | TGI [32]: > 100 µM | GI50 [33]: 0.41 µM | TGI [33]: 57.7 µM | GI50 [34]: 26.4 µM | TGI [34]: > 100 µM | GI50 [6]: 5.28 µM | TGI [6]: > 100 µM | GI50 [35]: 6.05 µM | TGI [35]: 87.8 µM | GI50 [36]: 22.6 µM | TGI [36]: > 100 µM | GI50 [37]: 1.08 µM | TGI [37]: > 100 µM | GI50 [38]: 0.6 µM | TGI [38]: 47 µM | GI50 [39]: 15 µM | TGI [39]: 65.8 µM | GI50 [40]: 0.279 µM | TGI [40]: 14.7 µM | GI50 [41]: 0.815 µM | TGI [41]: 25.5 µM | GI50 [42]: 18.8 µM | TGI [42]: > 100 µM | GI50 [43]: 10.9 µM | TGI [43]: > 100 µM | GI50 [44]: 1.14 µM | TGI [44]: 17 µM | GI50 [7]: 14.7 µM | TGI [7]: > 100 µM | GI50 [45]: 1.2 µM | TGI [45]: 44 µM | GI50 [46]: 23.3 µM | TGI [46]: > 100 µM | GI50 [47]: 0.631 µM | TGI [47]: 25.2 µM | GI50 [48]: 4.22 µM | TGI [48]: > 100 µM | GI50 [49]: 2.2 µM | TGI [49]: 18.6 µM | GI50 [50]: 23.8 µM | TGI [50]: > 100 µM | GI50 [51]: 9.74 µM | TGI [51]: 24.2 µM | GI50 [52]: 16.2 µM | TGI [52]: > 100 µM | GI50 [53]: 0.366 µM | TGI [53]: 35.8 µM | GI50 [54]: 10.6 µM | TGI [54]: > 100 µM | GI50 [55]: 2.43 µM | TGI [55]: 15.3 µM | GI50 [56]: 21.9 µM | TGI [56]: 96.1 µM | GI50 [10]: 0.394 µM | TGI [10]: 26.7 µM | GI50 [11]: 6.69 µM | TGI [11]: 27.6 µM | GI50 [13]: > 100 µM | TGI [13]: > 100 µM | GI50 [57]: 0.437 µM | TGI [57]: > 100 µM
